# Experimental data: the supplement of paper PMC4862054
# Legend:
# BT-474 [1] = experiment: normalised viability (% of control), CellTiter-Blue; higher = more viable cells (about 100 = DMSO control); conditions: incubation time: 72 h
# Description: (§1)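 DSRT, CellTiter-Blue viability, 72 h incubation. Signal is normalised to DMSO and benzethonium chloride controls. Value is the normalised response at dose 3.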
# BT-549 = experiment: as above; conditions: incubation time: 72 h
# Description: as §1
# CAL-120 = experiment: as above; conditions: incubation time: 72 h
# Description: as §1
# CAL-148 = experiment: as above; conditions: incubation time: 72 h
# Description: as §1
# CAL-51 = experiment: as above; conditions: incubation time: 72 h
# Description: as §1
# CAL-85-1 = experiment: as above; conditions: incubation time: 72 h
# Description: as §1
# DU-4475 [2] = experiment: as above; conditions: incubation time: 72 h
# Description: as §1
# HCC1143 = experiment: as above; conditions: incubation time: 72 h
# Description: as §1
# HCC1599 = experiment: as above; conditions: incubation time: 72 h
# Description: as §1
# HCC1937 [3] = experiment: as above; conditions: incubation time: 72 h
# Description: as §1
# HDQ-P1 [4] = experiment: as above; conditions: incubation time: 72 h
# Description: as §1
# Hs578T = experiment: as above; conditions: incubation time: 72 h
# Description: as §1
# MDA-MB-231 [5] = experiment: as above; conditions: incubation time: 72 h
# Description: as §1
# MDA-MB-436 [6] = experiment: as above; conditions: incubation time: 72 h
# Description: as §1
# MDA-MB-453 [7] = experiment: as above; conditions: incubation time: 72 h
# Description: as §1
# MDA-MB-468 [8] = experiment: as above; conditions: incubation time: 72 h
# Description: as §1
# MFM-223 [9] = experiment: as above; conditions: incubation time: 72 h
# Description: as §1
# SK-BR-3 = experiment: as above; conditions: incubation time: 72 h
# Description: as §1
# BT-474 [10] = experiment: drug sensitivity score (DSS), CellTox Green (DSS (AUC-based score)); higher = stronger drug effect (viability inhibition or cytotoxicity); extreme values may be limits of the assay; conditions: incubation time: 72 h
# Summary of the method: (§2)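 After 72 h of incubation in 384-well plates with compound at 5 concentrations (10-fold steps, 10,000-fold range set per compound), breast cancer cell lines seeded in 20 µl suspension were read first for CellTox Green fluorescence at 485/520 nm. CellTiter-Glo luminescence was measured next, after 10 min at room temperature. Normalisation on each plate used 0.1 % DMSO and a positive kill control, and the drug sensitivity score was computed from the area under the fitted dose-response curve.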
# DU-4475 [11] = experiment: as above; conditions: incubation time: 72 h
# Summary of the method: as §2
# HCC1937 [12] = experiment: as above; conditions: incubation time: 72 h
# Summary of the method: as §2
# MDA-MB-231 [13] = experiment: as above; conditions: incubation time: 72 h
# Summary of the method: as §2
# MDA-MB-436 [14] = experiment: as above; conditions: incubation time: 72 h
# Summary of the method: as §2
# MDA-MB-453 [15] = experiment: as above; conditions: incubation time: 72 h
# Summary of the method: as §2
# MFM-223 [16] = experiment: as above; conditions: incubation time: 72 h
# Summary of the method: as §2
# BT-474 [17] = conditions: 72 h
# Summary of the method: (§3)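 Breast cancer cell lines (20 µl suspension) were seeded into 384-well plates holding compound at 5 concentrations in 10-fold steps over a compound-specific 10,000-fold range, then incubated 72 h. Cell death was read first by CellTox Green fluorescence (485/520 nm), then viability by CellTiter-Glo luminescence after 10 min at room temperature. Each plate was normalised to 0.1 % DMSO and a positive kill control. EC50 was fitted from the dose-response curves and censored at the top concentration.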
# HDQ-P1 [18] = conditions: 72 h
# Summary of the method: as §3
# MDA-MB-468 [19] = conditions: 72 h
# Summary of the method: as §3
# HDQ-P1 [20] = experiment: drug sensitivity score (DSS), CellTox Green (DSS (AUC-based score)); higher = stronger drug effect (viability inhibition or cytotoxicity); extreme values may be limits of the assay; conditions: incubation time: 72 h
# Summary of the method: as §2
structure (smiles),measurement,setting,value
C[C@]12CC[C@@H]3c4ccc(OC(=O)N(CCCl)CCCl)cc4CC[C@H]3[C@@H]1CC[C@@H]2O [Estramustine],normalised viability,BT-474 [1]; 9.9 nM,113%
same,normalised viability,BT-549; 9.9 nM,79.8%
same,normalised viability,CAL-120; 9.9 nM,102%
same,normalised viability,CAL-148; 0.99 nM,113%
same,normalised viability,CAL-51; 0.99 nM,88.3%
same,normalised viability,CAL-85-1; 0.99 nM,111%
same,normalised viability,DU-4475 [2]; 0.99 nM,85.1%
same,normalised viability,HCC1143; 9.9 nM,105%
same,normalised viability,HCC1599; 9.9 nM,91.4%
same,normalised viability,HCC1937 [3]; 9.9 nM,101%
same,normalised viability,HDQ-P1 [4]; 0.99 nM,109%
same,normalised viability,Hs578T; 9.9 nM,102%
same,normalised viability,MDA-MB-231 [5]; 9.9 nM,93.8%
same,normalised viability,MDA-MB-436 [6]; 9.9 nM,92.1%
same,normalised viability,MDA-MB-453 [7]; 0.99 nM,100%
same,normalised viability,MDA-MB-468 [8]; 9.9 nM,108%
same,normalised viability,MFM-223 [9]; 9.9 nM,95.9%
same,normalised viability,SK-BR-3; 9.9 nM,106%
same,drug sensitivity score,BT-474 [10],0
same,drug sensitivity score,DU-4475 [11],0
same,drug sensitivity score,HCC1937 [12],0
same,drug sensitivity score,MDA-MB-231 [13],0
same,drug sensitivity score,MDA-MB-436 [14],0
same,drug sensitivity score,MDA-MB-453 [15],0
same,drug sensitivity score,MFM-223 [16],0
C[C@]1(O)C[C@@H](c2nc(-c3ccc4ccc(-c5ccccc5)nc4c3)c3c(N)nccn32)C1 [OSI-906],normalised viability,BT-474 [1]; 100 nM,110%
same,normalised viability,BT-549; 100 nM,84.4%
same,normalised viability,CAL-120; 100 nM,90%
same,normalised viability,CAL-148; 10 nM,101%
same,normalised viability,CAL-51; 10 nM,97.4%
same,normalised viability,CAL-85-1; 10 nM,104%
same,normalised viability,DU-4475 [2]; 10 nM,94.1%
same,normalised viability,HCC1143; 100 nM,105%
same,normalised viability,HCC1599; 100 nM,94.9%
same,normalised viability,HCC1937 [3]; 100 nM,92.5%
same,normalised viability,HDQ-P1 [4]; 10 nM,76%
same,normalised viability,Hs578T; 100 nM,74.8%
same,normalised viability,MDA-MB-231 [5]; 100 nM,83.8%
same,normalised viability,MDA-MB-436 [6]; 100 nM,94.5%
same,normalised viability,MDA-MB-453 [7]; 10 nM,86.6%
same,normalised viability,MDA-MB-468 [8]; 100 nM,98.6%
same,normalised viability,MFM-223 [9]; 100 nM,95.5%
same,normalised viability,SK-BR-3; 100 nM,78.3%
Nc1nc2[nH]cnc2c(=S)[nH]1 [Thioguanine],"EC50, CellTiter-Glo",BT-474 [17],197 nM
same,"EC50, CellTiter-Glo",HDQ-P1 [18],2970 nM
same,"EC50, CellTiter-Glo",MDA-MB-468 [19],9670 nM
same,normalised viability,BT-474 [1]; 100 nM,109%
same,normalised viability,BT-549; 100 nM,94.6%
same,normalised viability,CAL-120; 100 nM,96.8%
same,normalised viability,CAL-148; 10 nM,109%
same,normalised viability,CAL-51; 10 nM,108%
same,normalised viability,CAL-85-1; 10 nM,102%
same,normalised viability,DU-4475 [2]; 10 nM,105%
same,normalised viability,HCC1143; 100 nM,82.7%
same,normalised viability,HCC1599; 100 nM,103%
same,normalised viability,HCC1937 [3]; 100 nM,98.5%
same,normalised viability,HDQ-P1 [4]; 10 nM,103%
same,normalised viability,Hs578T; 100 nM,89.9%
same,normalised viability,MDA-MB-231 [5]; 100 nM,89.3%
same,normalised viability,MDA-MB-436 [6]; 100 nM,103%
same,normalised viability,MDA-MB-453 [7]; 10 nM,109%
same,normalised viability,MDA-MB-468 [8]; 100 nM,107%
same,normalised viability,MFM-223 [9]; 100 nM,95.2%
same,normalised viability,SK-BR-3; 100 nM,87.5%
same,drug sensitivity score,BT-474 [10],0
same,drug sensitivity score,DU-4475 [11],0
same,drug sensitivity score,HCC1937 [12],0
same,drug sensitivity score,HDQ-P1 [20],0
same,drug sensitivity score,MDA-MB-231 [13],0
same,drug sensitivity score,MDA-MB-436 [14],0
same,drug sensitivity score,MDA-MB-453 [15],0
same,drug sensitivity score,MFM-223 [16],0
CC(=O)c1c(C)c2cnc(Nc3ccc(N4CCNCC4)cn3)nc2n(C2CCCC2)c1=O,normalised viability,BT-474 [1]; 100 nM,95.7%
same,normalised viability,BT-549; 100 nM,108%
same,normalised viability,CAL-120; 100 nM,73.8%
same,normalised viability,CAL-148; 10 nM,91.3%
same,normalised viability,CAL-51; 10 nM,107%
same,normalised viability,CAL-85-1; 10 nM,102%
same,normalised viability,DU-4475 [2]; 10 nM,107%
same,normalised viability,HCC1143; 100 nM,82.3%
same,normalised viability,HCC1599; 100 nM,88.2%
same,normalised viability,HCC1937 [3]; 100 nM,97.2%
same,normalised viability,HDQ-P1 [4]; 10 nM,108%
same,normalised viability,Hs578T; 100 nM,66.3%
same,normalised viability,MDA-MB-231 [5]; 100 nM,88.5%
same,normalised viability,MDA-MB-436 [6]; 100 nM,111%
same,normalised viability,MDA-MB-453 [7]; 10 nM,104%
same,normalised viability,MDA-MB-468 [8]; 100 nM,105%
same,normalised viability,MFM-223 [9]; 100 nM,88.1%
same,normalised viability,SK-BR-3; 100 nM,78%
